Patent US9618513B2, “Compositions and methods for detecting and treating colorectal cancer” (The Regents of the University of Michigan, priority 2014, dated 2017)

How the values were obtained:
Format in all cases: cell-based, human
[1] = system: NANOG, SOX2, POU5F1 (OCT3/4); assay: Stem cell core gene expression (real-time PCR, western blotting); conditions: DLD-1, IL-22 20 ng/ml
Text: (§1) (A), IL-22 is expressed in colon cancer tissues. IL-22 mRNA was detected by real-time PCR in colon cancer tissues and peripheral blood. *P<0.05 compared to blood, 20 colon cancer patients. (B-D), Endogenous IL-22 promotes colon carcinogenesis. Single cells (10^7) isolated from colon cancer tissue were mixed with anti-IL-22 antibody or control mAb, and then subcutaneously injected to NSG mice. Tumor growth (B), incidence (C), and animal survival (D) are shown. (P<0.05 for all, n=5 per group). (E-G) Recombinant IL-22 promotes colon carcinogenesis. DLD-1 colon cancer cells (10^5) were pre-incubated with IL-22 (20 ng/ml) for 1 hour, and then subcutaneously injected to NSG mice. […] ALDH activity was determined by FACS based on aldefluor fluorescence. […] Results are expressed as fold changes of ALDH expression. […] The mRNA of stem cell core gene was detected by real-time PCR (K) and proteins were detected by western blotting (L, M). […]
(§2) (A, B) IL-22 is expressed by immune cells in colon cancer tissues. Different cell populations were sorted from colon cancer tissues and IL-22 expression was measured by real time PCR. […] IL-22 was detected via ELISA. […] IL-22 was detected with ELISA (D) or intracellular staining (E). […] IL-22 mRNA was detected by real time PCR (F) and protein by ELISA (G). […] IL-22 expression was quantified with real-time PCR in the migrated and non-migrated cells. […]

[2] = system: DOT1L, AFF4, MLLT10; assay: DOT1L complex gene expression by real-time PCR; conditions: DLD-1 and primary colon cancer cells, IL-22 12 hours
Procedure: (A) IL-22 induces H3K79me2 in colon cancer cells. Colon cancer cells were treated with IL-22 for 48 hours. Total histone modifications were analyzed by western blot. (B, C) DOT1L inhibitor, EPZ004777 suppresses colon cancer sphere formation induced by IL-22. Colon cancer sphere assay was performed in the presence of IL-22 and EPZ004777. Sphere numbers were recorded. DLD-1 cells (B), primary colon cancer cells (C). (n=5, P<0.05). (D, E) IL-22 stimulates DOT1L complex gene expression. Colon cancer cells were cultured for 12 hours with IL-22. DOT1L complex gene expression was quantified by real-time PCR. DLD-1 cells (D), primary colon cancer cells (E). (n=3, P<0.05). (F) DOT1L knock down results in reduced colon cancer sphere formation induced by IL-22. Colon cancer sphere assay was performed with colon cancer cells expressing sh-DOT1L or vector in the presence of IL-22. Sphere numbers were recorded. (n=5, P<0.05). (G-I), IL-22 causes higher occupancy of H3K79me2 on core stem cell gene promoters. H3K79me2-ChIP assay was performed in DLD-1 colon cancer cells cultured with IL-22. One of 3 experiments is shown. […]
The mRNA was quantified by real-time RT-PCR. […] SYBR Green Master Mix was used to detect fluorescence. Relative expression was calculated according to the Ct value with normalization to GAPDH.

[3] = system: ALDH1; assay: ALDH activity by FACS (aldefluor fluorescence); conditions: DLD-1, HT29 and two primary colon cancer cell lines, IL-22 24 hours
Text: as §1, §2

IL-22: recombinant IL-22 (R&D systems), cytokine interleukin-22
mRNA levels of stem cell core genes NANOG, SOX2, POU5F1 (OCT3/4) ([1]; real-time PCR): enhanced | protein levels of stem cell core genes NANOG, SOX2, POU5F1 (OCT3/4) ([1]; western blotting): enhanced | expression of DOT1L, AFF4 [2]: consistently promoted | aldehyde dehydrogenase (ALDH1) activity [3]: increased
